Measurements: patent US20020122768A1, “Stable radiopharmaceutical compositions and methods for preparation thereof” (priority 2000, published 2002)

How the values were obtained:
[1] = Solution stability of ^177Lu-C at −78° C., RCP by radio-HPLC; assay type: physicochemical; conditions: for RCP (%) t = 0 / RCP (%) t = 3 days / RCP (%) t = 7 days / RCP (%) change: ^177Lu-C prepared using 2 mg GA; for RCP (%) t = 0 / RCP (%) t = 3 days / RCP (%) t = 7 days: degassed, second stabilizer (20 mg AA, 20 mg DSA, 10 mg 2,3,4-THBA, 10 mg 3,4,5-THBA) added post-labeling; for RCP (%) change: second stabilizer added post-labeling, t = 0 to 7 days; for stabilization compared with AA and DSA: ^177Lu-C, second stabilizer
Description: The integrity of a radiopharmaceutical is measured by the radiochemical purity (RCP) of the radiolabeled compound using ITLC or more preferably HPLC. The advantage of using HPLC is that radio-impurities caused by radiolytic degradation can be separated from the radiopharmaceutical under optimized chromatographic conditions. […] The radiopharmaceutical compositions of this invention are effective in maintaining the long-term stability of samples that have been frozen, thawed, and re-tested periodically for 7 days.
The initial RCP of a radiopharmaceutical is largely dependent on radiolabeling conditions such as pH, heating temperature and time. Once a radiopharmaceutical is prepared in high yield, the stability of the radiopharmaceutical composition is measured by the` RCP change of the radiopharmaceutical over a certain period of time. For comparison purposes, sodium gentisate or sodium ascorbate was often used as the reference since they have been used in various radiopharmaceutical formulations.
HPLC method 3 used a HP-1100 HPLC system with a UV/visible detector (λ=220 nm), an IN-US radio-detector, and a Zorbax C18 column (4.6 mm×250 mm, 80 Å pore size). The flow rate was 1 mL/min with a gradient mobile phase starting from 90% solvent A (0.025 M ammonium acetate buffer, pH 6.8) and 10% solvent B (acetonitrile) at 0 min to 88% solvent A and 12% solvent B at 18 min, followed by an isocratic wash using 40% of solvent A and 60% solvent B from 19 to 25 min.
The ITLC method used Gelman Sciences silica-gel ITLC paper strips and 1:1 mixture of acetone and saline as eluant. By this method, the radiolabeled compounds migrate to the solvent front while [^90Y]/^177Lu]colloid and [^90Y]/^177Lu]acetate remain at the origin.
(§1) The 0.5 M ammonium acetate buffer (pH 8.0) was first degassed under vacuum for 1-2 min. COMPOUND C and gentisic acid (sodium salt, GA) were dissolved in the degassed buffer to give a concentration of 100 μg/mL for COMPOUND C and 2 mg/mL for GA. The resulting solution was immediately degassed under vacuum for another 1-2 min. To a clean sealed 5 mL vial was added 1.0 mL of the degassed 0.5 M ammonium acetate buffer (pH 8.0) containing 100 μg COMPOUND C and 2 mg GA. The solution was degassed again under vacuum. Upon addition of ˜20 μL of ^177LuCl3 solution (˜20 mCi) in 0.05 N HCl, the reaction mixture was heated at 100° C. for 5 min. After cooling to room temperature, a sample of the resulting solution was analyzed by HPLC (Method 3, injection volume=5 μL) and ITLC. […] To the solution above was added 0.5 mL of sodium ascorbate solution (40 mg/mL in 0.5 M ammonium acetate buffer, pH=7.4). The resulting mixture was then kept in a dry-ice box (−78° C.) for 7 days. Samples were analyzed at t=0, 3 and 7 days.
as §1, with “COMPOUND” for “The 0.5 M ammonium acetate buffer (pH 8.0) was first degassed under vacuum for 1-2 min. COMPOUND”, “1.0 μL” for “1.0 mL”, “of 2,3,4-THBA” for “of sodium ascorbate”, “solution (20” for “solution (40”
COMPOUND C and gentisic acid (sodium salt, GA) were dissolved in the degassed buffer to give a concentration of 100 μg/mL for COMPOUND C and 2 mg/mL for GA. The resulting solution was immediately degassed under vacuum for another 1-2 min. […]

[2] = as above; assay type: physicochemical; conditions: ^177Lu-C prepared using 2 mg GA, degassed, second stabilizer (20 mg AA, 20 mg DSA, 10 mg 2,3,4-THBA, 10 mg 3,4,5-THBA) added post-labeling

RCP (%) t = 0 [1] [%] | RCP (%) t = 3 days [1] [%] | RCP (%) t = 7 days [1] [%] | RCP (%) change [1] [%] | RCP (%) t = 1 day [2] [%] | stabilization compared with AA and DSA [1] | Molecule
97.4 | 95.9 | 93.0 | 4.4 | 97.4 | – | 2,4-disulfonatobenzeneamine [DSA]
97.4 | 96.5 | 95.4 | 2.0 | 96.6 | better stabilization | O=C(O)c1ccc(O)c(O)c1O [2,3,4-THBA, 2,3,4-trihydroxybenzoic acid]
97.2 | 96.7 | 95.0 | 2.2 | 97.9 | better stabilization | O=C(O)c1cc(O)c(O)c(O)c1 [3,4,5-THBA, 3,4,5-trihydroxybenzoic acid]
